Laboratory results published in patent publication US6916802B2, “Amino ceramide-like compounds and therapeutic methods of use” (Genzyme Corporation, priority 2002, dated 2005).
Several values for one entry are separate records, joined by “and”; a condition that tells them apart may be missing. Identical values can stand only once. Marks after values point to notes of the source that are not given here.

Columns and labels:
MDCK cells [1] = assay: GlcCer, ceramide and diradylglycerol content of treated MDCK cells (Specific Example 2); type: cell-based, canine; settings: for GlcCer lost from the cells (depletion): 11.3 nM inhibitor
Description: Cell culture and lipid extraction. One half million of MDCK cells were seeded into 10 cm style dish containing 8 ml serum free DMEM supplemented medium. Shayman, J. A. et al., J. Biol. Chem., 265:12135-12138 (1990). […] The GlcCer synthase inhibitors were added into the medium as a one to one complex with delipidated BSA. Abe, A. et al., J. Lipid. Res., 36:611-621 (1995); Abe, A. et al., Biochim. Biophys. Acta, 1299:331-341 (1996). The cells were incubated for 24 h or 48 h with the inhibitors. After the incubation, the cells were washed twice with 8 ml of cold PBS and fixed with 2 ml of cold methanol. The fixed cells were scraped and transferred to a glass tube. Another one ml of methanol was used to recover the remaining cells in the dish.
Three ml of chloroform was added to the tube and briefly sonicated using a water bath type sonicator. After centrifugation at 800 g for 5 min, the supernatant was transferred into another glass tube. The residues were reextracted with chloroform/methanol (1/1). After the centrifugation, the resultant supernatant was combined with the first one. The residues were air-dried and kept for protein analysis. Adding 0.9% NaCl to the supematant combined, the ratio of chloroform/methanol/aqueous was adjusted to 1/1/1. After centrifugation 800 g for 5 min, the upper layer was discarded. Methanol/water (1/1) with the same amount of volume of the lower layer was used to wash. The resultant lower layer was transferred into a small glass tube and dried down under a stream of nitrogen gas. A part of the lipid was used for lipid phosphate determination. Ames, B. N., Methods Enzymol., 8:115-118 (1966). The remainder was analyzed using HPTLC (Merck).
In order to determine whether inhibition of 1-O-acylceramide synthase was the basis for inhibitor mediated ceramide accumulation, the ceramide and diradylglycerol levels of MDCK cells treated D-threo-P4, D-threo-3′,4′-ethylenedioxy-P4, and D-threo-(4′-hydroxy)-P4 were measured (Table 9). MDCK cells (5×10^5) were seeded into a 10 cm dish and incubated for 24 h. Following the incubation, the cells were treated for 24 or 48 h with or without P4 or the phenyl substitute homologues. Both ceramide and diradylglycerol contents were determined by the method of Preis, J. et al., J. Biol. Chem., 261:8597-8600 (1986). GlcCer content was measured densitometrically by a video camera and use of NIH image 1.49. Significant increases in both ceramide and diradylglycerol occurred only in cells treated with inhibitor concentrations in excess of 1 mM. This was approximately 30-fold lower than the concentration required for inhibition of the 1-O-acylceramide synthase assayed in the cellular homogenates. […] Abe, A. et al., Biochim. Biophys. Acta, 1299:331-341 (1996).
(§1) Effects of D-threo-P4, D-threo4′-hydroxy-P4 and D-threo-3,4′-ethylenedioxy-P4 on GlcCer Synthesis and Cell Growth. To confirm the cellular specificity of D-threo-3′,4′-ethylenedioxy-P4 and D-threo-(4′-hydroxy)-P4 as compared to D-threo-P4, MDCK cells were treated with different concentrations of the inhibitors. The total protein amount in each sample was determined by the BCA method. In GlcCer analysis, lipid samples and standard lipids were applied to the same HPTLC plate pre-treated with borate and developed in a solvent consisting of C/M/W (63/24/4). The level of GlcCer was estimated from a standard curve obtained using a computerized image scanner. The values were normalized on the basis of the phospholipid content. The results are shown in FIG. 7, wherein each bar is the average values from three dishes, with error bars corresponding to one standard deviation. In the control, the total protein and GlcCer were 414±47.4 μg/dish and 24.3±1.97 ng/nmol phosphate, respectively.

[2] = target: T1, 1-O-acylceramide synthase (Canis lupus familiaris, UniProt Q6XPZ3); assay: 1-O-acylceramide synthase (transacylase) assay; type: biochemical; settings: D-threo enantiomers, FIG. 12
T1 construct: the 1-O-acylceramide synthase assayed in the cellular homogenates; endogenous in cells; host or cells: cellular homogenates (MDCK, from context)
T1 sequence (Q6XPZ3 32-408): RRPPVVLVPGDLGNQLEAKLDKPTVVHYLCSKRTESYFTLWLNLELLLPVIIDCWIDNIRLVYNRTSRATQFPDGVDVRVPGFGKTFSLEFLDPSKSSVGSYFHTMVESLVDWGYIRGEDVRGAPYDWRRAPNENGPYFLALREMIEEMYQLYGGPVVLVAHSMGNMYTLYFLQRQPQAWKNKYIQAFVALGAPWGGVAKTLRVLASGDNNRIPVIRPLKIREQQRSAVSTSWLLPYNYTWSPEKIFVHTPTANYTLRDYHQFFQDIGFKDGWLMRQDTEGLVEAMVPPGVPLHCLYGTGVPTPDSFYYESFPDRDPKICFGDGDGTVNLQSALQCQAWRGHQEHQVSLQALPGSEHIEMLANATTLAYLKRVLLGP
Source text: Distinguishing Between Inhibition of GlcCer Synthase and 1-O-acylceramide Synthase Inhibition. […] An alternative pathway for ceramide metabolism was subsequently identified, the acylation of ceramide at the 1-hydroxyl position, which was blocked by both threo and erythro diastereomers of PDMP. The specificities of D-threo-P4, D-threo-3′,4′-ethylenedioxy-P4, and D-threo-(4′-hydroxy)-P4 for GlcCer synthase were studied by assaying the transacylase.

MDCK cells [3] = assay: Cell growth of treated MDCK cells, total protein (Specific Example 2); type: cell-based, canine
Description: Cell culture and lipid extraction. One half million of MDCK cells were seeded into 10 cm style dish containing 8 ml serum free DMEM supplemented medium. Shayman, J. A. et al., J. Biol. Chem., 265:12135-12138 (1990). After 24 h the medium was replaced with 8 ml of the medium containing 0, 11.8, 118 or 1180 nM D-t-P4, D-t-3′,4′-ethylenedioxy-P4 or D-4′-hydroxy)-P4. The GlcCer synthase inhibitors were added into the medium as a one to one complex with delipidated BSA. Abe, A. et al., J. Lipid. Res., 36:611-621 (1995); Abe, A. et al., Biochim. Biophys. Acta, 1299:331-341 (1996). The cells were incubated for 24 h or 48 h with the inhibitors. After the incubation, the cells were washed twice with 8 ml of cold PBS and fixed with 2 ml of cold methanol. The fixed cells were scraped and transferred to a glass tube. Another one ml of methanol was used to recover the remaining cells in the dish.
as §1

[4] = substituent of phenyl group; estimated from the Table in Hogberg et al.; cited from earlier work
[5] = system: three of the tumor cell lines; assay: Growth tests of chemotherapeutic agents in the Drug Evaluation Core Laboratory; type: cell-based; settings: range over three of the tumor cell lines
Description: (§2) Growth of cell lines. Comparisons of different inhibitors with regard to suppression of human cancer cell growth were made by the University of Michigan Cancer Center in vitro Drug Evaluation Core Laboratory. MCF-7 breast carcinoma cells, HT-29 colon adenocarcinoma cells, H-460 lung large cell carcinoma cells, and 9L brain gliosarcoma cells were grown in RPMI 1640 medium with 5% fetal bovine serum, 2 mM glutamine, 50 units/ml of penicillin, […] of streptomycin, and 0.1 mg/ml of neomycin. UMSCC-10A head and neck squamous carcinoma cells were grown in minimal essential medium with Earle salts and the same supplements. Medium components were from Sigma Chemical Co. Cells were plated in 96-well microtiter plates (1000 cells/well for H-460 and 9L cells, and 2000 cells/well for the other lines), and the test compounds were added 1 day later. The stock inhibitor solutions, 2 mM in 2 mM BSA, were diluted with different amounts of additional 2 mM BSA, then each solution was diluted 500-fold with growth medium to obtain the final concentrations indicated in the Figures and Tables.
(§3) Five days after plating the H-460 and 9L cells, or 6 days for the other lines, cell growth was evaluated by staining the adhering cells with sulforhodamine B and measuring the absorbance at 520 nm (Skehan, P. et al., “New Colorimetric Cytotoxicity Assay for Anticancer-Drug Screening,” J. Natl. Cancer Inst., 82:1107-1112 (1990)). The absorbance of the treated cultures is reported as percent of that of control cultures, to provide an estimate of the fraction of the cells that survived, or of inhibition of growth rate.

[6] = system: GlcCer synthase of MDCK cell homogenates; assay: Inhibition of ceramide glucosyltransferase (GlcCer synthase) of MDCK cell homogenates; type: biochemical, canine; settings: for Inhibition at 5 μM: 5 μM inhibitor; for Inhibition at 5 μM / % Inhibition at 80 μM: triplicate ± SD, samples partly isomer mixtures; for % Inhibition at 80 μM: 80 μM inhibitor
Description: Assay of sphingolipid enzymes. The inhibitors were evaluated for their effectiveness against the GlcCer synthase of MDCK cell homogenates by incubation in a thermostatted ultrasonic bath (Radin N. S. et al., “Ultrasonic Baths as Substitutes for Shaking Incubator Baths,” Enzyme, 45:67-70 (1991)) with octanoyl sphingosine and uridinediphospho[^3H]glucose (Shukla, G. S. et al., “Glucosylceramide Synthase of Mouse Kidney: Further Characterization and Improved Assay Method,” Arch. Biochem. Biophys., 283:372-378 (1990)). The lipoidal substrate (85 μg) was added in liposomes made from 0.57 mg dioleoylphosphatidylcholine and 0.1 mg of Na sulfatide. Confluent cells were washed, then homogenized with a micro-tip sonicator at 0° C. for 3×30 sec; ˜0.2 mg of protein was used in each assay tube. In the case of the aromatic inhibitors, the test compound was simply evaporated to dryness from solution in the incubation tube. […] The aliphatic inhibitors, which appeared to be less soluble in water, were added as part of the substrate liposomes.

[7] = system: MCF-7 breast carcinoma cells; assay: Tumor cell growth in vitro (sulforhodamine B), MCF-7; type: cell-based, human; settings: rounded off to one digit, read-out: Inhibition of tumor cell growth in vitro, IC50
Description: as §2, §3

[8] = system: HT-29 colon adenocarcinoma cells; assay: Tumor cell growth in vitro (sulforhodamine B), HT-29; type: cell-based, human; settings: rounded off to one digit, read-out: Inhibition of tumor cell growth in vitro, IC50
Description: as §2, §3

[9] = system: H-460 lung large cell carcinoma cells; assay: Tumor cell growth in vitro (sulforhodamine B), H-460; type: cell-based, human; settings: rounded off to one digit, read-out: Inhibition of tumor cell growth in vitro, IC50
Description: as §2, §3

[10] = system: 9L brain gliosarcoma cells; assay: Tumor cell growth in vitro (sulforhodamine B), 9L; type: cell-based; settings: 9L; rounded off to one digit; read-out: Inhibition of tumor cell growth in vitro, IC50
Description: as §2, §3

CCCCCCCCCCCCCCCC(=O)N[C@H](CN1CCCC1)[C@H](O)c1ccc2c(c1)OCCO2 [D-threo-3′,4′-ethylenedioxy-P4, D-t-3′,4′-ethylenedioxy-1-phenyl-2-palmitoylamino-3-pyrrolidino-1-propanol]
GlcCer lost from the cells (depletion) (MDCK cells [1]): ~78% | GlcCer lost from the cells (depletion) (MDCK cells [1]; listed as D-t-3′,4′-ethylenedioxy-P4): 80% | Ceramide (pmol/nmol phospholipids) (MDCK cells [1]; 113 nM, 24 h): 5.21 pmol/nmol phospholipids | level of ceramide versus untreated cells (MDCK cells [1]; 1130 nM): two times higher | activity in blocking 1-O-acylceramide synthase [2]: comparable activity | total protein versus untreated cells (MDCK cells [3]; 1130 nM): significant decrease | total protein content versus untreated cells (MDCK cells [3]; 11.3 or 113 nM): little difference

CCCCCCCCCCCCCCCC(=O)N[C@H](CN1CCCC1)[C@H](O)c1cccc(OC)c1 [m-methoxy-P4]
σ + π [4]: 0.10

CCCCCCCCCCCCCCCC(=O)N[C@H](CN1CCCC1)[C@H](O)c1ccccc1 [D-threo-P4]
σ + π [4]: 0.00 | GlcCer lost from the cells (depletion) (MDCK cells [1]): 27% | Ceramide (pmol/nmol phospholipids) (MDCK cells [1]; 11.3 nM, 24 h): 5.33 ± 0.41 pmol/nmol phospholipids | Diradylglycerol (pmol/nmol phospholipids) (MDCK cells [1]; 11.3 nM, 24 h): 24.1 ± 1.66 pmol/nmol phospholipids | Ceramide (pmol/nmol phospholipids) (MDCK cells [1]; 11.3 nM, 48 h): 5.68 ± 0.27 pmol/nmol phospholipids | Diradylglycerol (pmol/nmol phospholipids) (MDCK cells [1]; 11.3 nM, 48 h): 29.6 ± 0.73 pmol/nmol phospholipids | Ceramide (pmol/nmol phospholipids) (MDCK cells [1]; 113 nM, 24 h): 4.64 ± 0.38 pmol/nmol phospholipids | Diradylglycerol (pmol/nmol phospholipids) (MDCK cells [1]; 113 nM, 24 h): 26.6 ± 1.56 pmol/nmol phospholipids | Ceramide (pmol/nmol phospholipids) (MDCK cells [1]; 113 nM, 48 h): 7.08 ± 0.29 pmol/nmol phospholipids | Diradylglycerol (pmol/nmol phospholipids) (MDCK cells [1]; 113 nM, 48 h): 33.0 ± 2.63 pmol/nmol phospholipids | Ceramide (pmol/nmol phospholipids) (MDCK cells [1]; 1130 nM, 24 h): 5.10 ± 0.35 pmol/nmol phospholipids | Diradylglycerol (pmol/nmol phospholipids) (MDCK cells [1]; 1130 nM, 24 h): 27.1 ± 0.67 pmol/nmol phospholipids | Ceramide (pmol/nmol phospholipids) (MDCK cells [1]; 1130 nM, 48 h): 9.74 ± 0.53 pmol/nmol phospholipids | Diradylglycerol (pmol/nmol phospholipids) (MDCK cells [1]; 1130 nM, 48 h): 38.8 ± 1.11 pmol/nmol phospholipids | activity in blocking 1-O-acylceramide synthase [2]: comparable activity

CCCCCCCCCCCCCCCC(=O)N[C@H](CN1CCCC1)[C@H](O)c1ccc(Cl)cc1 [p-chloro-P4]
σ + π [4]: 0.94

O=c1[nH]cc(F)c(=O)[nH]1 [fluorouracil]
IC50 [5]: 70 to 200 nM

CCCCCCCCCCCCCCCC(=O)NC(CN1CCCCC1)C(O)c1ccccc1 (mixture of isomers) [BML-115]
Inhibition at 5 μM [6]: 12.4% | % Inhibition at 80 μM ([6]; 80 µM): 82 ± 0.3^b % and 84 ± 0.8^a % | improvement of activity relative to PPMP ([6]; calculated from inhibitions at 5 μM in Expt. f and relative purities): ~1.4 fold | IC50 [7]: 2000 nM | IC50 [8]: 2000 nM | IC50 [9]: 2000 nM | IC50 [10]: 2000 nM

COc1cc([C@@H]2c3cc4c(cc3[C@@H](O[C@@H]3O[C@@H]5CO[C@@H](C)O[C@H]5[C@H](O)[C@H]3O)[C@H]3COC(=O)[C@H]23)OCO4)cc(OC)c1O [etoposide]
IC50 [5]: 100 to 1000 nM

CCCCCCCCCCCCCCCC(=O)NC(CN1CCC1)C(O)c1ccccc1 (mixture of isomers) [BML-123]
Inhibition at 5 μM [6]: 15 ± 0.8^f % | % Inhibition at 80 μM [6]: 86 ± 0.1^d % | IC50 [7]: 2000 nM | IC50 [8]: 2000 nM | IC50 [10]: 2000 nM

CN(Cc1cnc2nc(N)nc(N)c2n1)c1ccc(C(=O)N[C@@H](CCC(=O)O)C(=O)O)cc1 [methotrexate]
IC50 [5]: 30 to 200 nM

CCCCCCCCCCCCCCCC(=O)N[C@H](CN1CCCC1)[C@H](O)c1ccc(OC)cc1 [D-threo-p-methoxy-P4]
σ + π [4]: −0.29

CCCCCCCCCCCCCCCC(=O)N[C@H](CN1CCCC1)[C@H](O)c1ccc(C)cc1 [p-methyl-P4]
σ + π [4]: 0.39
